Patent publication US11174240B2, “Crystalline solid compound of 3-phenyl-4-propyl-1-(pyridin-2-yl)-1H-pyrazol-5-ol hydrochloride” (Aptabio Therapeutics Inc., priority 2017, dated 2021)

Tests used:
Type in all cases: physicochemical
[1] = Hygroscopicity test (Karl-Fischer water content under accelerated storage); details: for Water content (%) 1 day: 1 day at 40° C. / 75% relative humidity; for Water content (%) 1 day / Water content (%) 3 days / Water content (%) 7 days: Petri dish without sealing; for Water content (%) 3 days: 3 days at 40° C. / 75% relative humidity; for Water content (%) 7 days: 7 days at 40° C. / 75% relative humidity; for Water content (%) Initial: before storage at 40° C. / 75% relative humidity
Experimental: (§1) Hygroscopicity comparison experiments were conducted on each of the crystalline free base compound (Example 1), the crystalline hydrochloride compound (Example 2), the non-crystalline free base compound (Comparative Example 1), the non-crystalline hydrochloride compound (Comparative Example 2) and various crystalline acid addition compounds (Comparative Example 3).
The test compounds were exposed in a Petri dish under accelerated storage conditions at a temperature of 40° C. and a relative humidity of 75% for 7 days without sealing. The water content of each test compound was measured using a Karl-Fischer moisture meter. Table 2 summarizes the water content (%) of each test compound measured during the storage period.

[2] = Stability comparison test (long-term storage, HPLC of decomposition product of Formula 3 and total impurities); details: for Concentration of decomposition product of Formula 3 (%) 6 months / Total impurity concentration (%) 6 months: 6 months at 25° C. / 60% relative humidity
Experimental: as §1, with “Stability” for “Hygroscopicity”
The test compound was stored in a chamber for stability measurement under long-term storage conditions at a temperature of 25° C. and a relative humidity of 60% for 6 months. For storage, each test compound was placed in a double polyethylene bag, and the polyethylene bag was filled with a silica gel pouch and was then placed in a small paper box (fiber drum).
The following Table 3 summarizes the results of the measurement of the concentration of the degradation product of Formula 3 and the total impurity concentration by HPLC analysis after storage under long-term storage conditions for 6 months.
[Analytical Conditions of Liquid Chromatography (HPLC)]
Column temperature: 35° C.
Detector: UV Detector (246 nm)
Gradient condition of mobile phase: […]

[3] = Evaluation of polymorphic transition (PXRD and DSC after storage); details: for DSC endothermic temperature 4 weeks: 4 weeks at 40° C. / 75% relative humidity in polyethylene bag; for DSC endothermic temperature Initial: initial state; for Comparison and determination results (polymorphic transition): initial vs 4 weeks at 40° C. / 75% relative humidity, PXRD and DSC
Experimental: In order to determine whether or not the polymorphic transition phenomenon occurs under the storage conditions in the crystalline free base compound (Example 1) and the crystalline hydrochloride compound (Example 2), the results of PXRD analysis in the initial state and the possibility of polymorphic transition over time were examined.
Specifically, the test compound was stored in a polyethylene bag in a chamber for stability measurement at a temperature of 40° C. and a relative humidity of 75% for 4 weeks. Also, PXRD and DSC analysis results, measured at the initial state and after 4 weeks, were compared.

Water content (%) 1 day [1] [%]	Water content (%) 3 days [1] [%]	Water content (%) 7 days [1] [%]	Water content (%) Initial [1] [%]	Concentration of decomposition product of Formula 3 (%) 6 months [2] [%]	Total impurity concentration (%) 6 months [2] [%]	Concentration of decomposition product of Formula 3 (%) Initial [2] [%]	Total impurity concentration (%) Initial [2] [%]	Water content (%) 1 day ([1]; hydrochloride) [%]	Water content (%) 3 days ([1]; hydrochloride) [%]	Water content (%) 7 days ([1]; hydrochloride) [%]	Water content (%) Initial ([1]; hydrochloride) [%]	Concentration of decomposition product of Formula 3 (%) 6 months ([2]; hydrochloride) [%]	Total impurity concentration (%) 6 months ([2]; hydrochloride) [%]	Concentration of decomposition product of Formula 3 (%) Initial ([2]; hydrochloride) [%]	Total impurity concentration (%) Initial ([2]; hydrochloride) [%]	DSC endothermic temperature 4 weeks [3] [°C]	DSC endothermic temperature Initial [3] [°C]	Comparison and determination results (polymorphic transition) [3]	Comparison and determination results (polymorphic transition) ([3]; hydrochloride)	SMILES
0.12	0.13	0.15	0.12	0.35	1.24	0.08	0.52	–	–	–	–	–	–	–	–	–	–	–	–	CCCc1c(-c2ccccc2)nn(-c2ccccn2)c1O [Hemi-1,5-naphthalene disulfonate, 3-phenyl-4-propyl-1-(pyridin-2-yl)-1H-pyrazol-5-ol]
1.58	1.75	2.80	0.45	0.78	3.27	0.12	0.58	–	–	–	–	–	–	–	–	–	–	–	–	CCCc1c(-c2ccccc2)nn(-c2ccccn2)c1O [L-malate, 3-phenyl-4-propyl-1-(pyridin-2-yl)-1H-pyrazol-5-ol]
0.34	0.34	0.38	0.33	0.54	1.85	0.10	0.40	–	–	–	–	–	–	–	–	–	–	–	–	CCCc1c(-c2ccccc2)nn(-c2ccccn2)c1O [L-tartrate, 3-phenyl-4-propyl-1-(pyridin-2-yl)-1H-pyrazol-5-ol]
0.42	0.44	0.48	0.37	0.38	1.65	0.09	0.48	–	–	–	–	–	–	–	–	–	–	–	–	CCCc1c(-c2ccccc2)nn(-c2ccccn2)c1O [Succinate, 3-phenyl-4-propyl-1-(pyridin-2-yl)-1H-pyrazol-5-ol]

The next lines start with the compound.

SMILES	Water content (%) 1 day [1] [%]	Water content (%) 3 days [1] [%]	Water content (%) 7 days [1] [%]	Water content (%) Initial [1] [%]	Concentration of decomposition product of Formula 3 (%) 6 months [2] [%]	Total impurity concentration (%) 6 months [2] [%]	Concentration of decomposition product of Formula 3 (%) Initial [2] [%]	Total impurity concentration (%) Initial [2] [%]	Water content (%) 1 day ([1]; hydrochloride) [%]	Water content (%) 3 days ([1]; hydrochloride) [%]	Water content (%) 7 days ([1]; hydrochloride) [%]	Water content (%) Initial ([1]; hydrochloride) [%]	Concentration of decomposition product of Formula 3 (%) 6 months ([2]; hydrochloride) [%]	Total impurity concentration (%) 6 months ([2]; hydrochloride) [%]	Concentration of decomposition product of Formula 3 (%) Initial ([2]; hydrochloride) [%]	Total impurity concentration (%) Initial ([2]; hydrochloride) [%]	DSC endothermic temperature 4 weeks [3] [°C]	DSC endothermic temperature Initial [3] [°C]	Comparison and determination results (polymorphic transition) [3]	Comparison and determination results (polymorphic transition) ([3]; hydrochloride)
CCCc1c(-c2ccccc2)nn(-c2ccccn2)c1O [Comparative Example 1, 3-phenyl-4-propyl-1-(pyridin-2-yl)-1H-pyrazol-5-ol]	1.30	2.27	2.95	0.33	0.65	7.58	0.06	0.26	–	–	–	–	–	–	–	–	–	–	–	–
CCCc1c(-c2ccccc2)nn(-c2ccccn2)c1O.Cl [Comparative Example 2, 3-phenyl-4-propyl-1-(pyridin-2-yl)-1H-pyrazol-5-ol hydrochloride]	–	–	–	–	–	–	–	–	1.98	3.54	7.52	0.31	0.92	5.87	0.05	0.35	–	–	–	–
CCCc1c(-c2ccccc2)nn(-c2ccccn2)c1O [Example 1, 3-phenyl-4-propyl-1-(pyridin-2-yl)-1H-pyrazol-5-ol]	0.29	0.32	0.34	0.26	0.09	0.47	0.05	0.32	–	–	–	–	–	–	–	–	72.8	73.54	no polymorphic transition occurred	–
CCCc1c(-c2ccccc2)nn(-c2ccccn2)c1O.Cl [Example 2, 3-phenyl-4-propyl-1-(pyridin-2-yl)-1H-pyrazol-5-ol hydrochloride]	–	–	–	–	–	–	–	–	0.31	0.37	0.39	0.25	0.08	0.45	0.03	0.28	133.4	134.25	–	no polymorphic transition occurred
